Values quoted from earlier work, collected in article PMC12308805, “Ultrahigh-Throughput Virtual Screening Strategies against PPI Targets: A Case Study of STAT Inhibitors” (Journal of Chemical Information and Modeling, 2025).

System: STAT3
Details: sheet 6QHD_actives_decoys, retrospective screening set for STAT3 SH2 domain (PDB 6QHD); decoys are presumed inactives, not tested; ref DUD-E; cited from earlier work

Structure (SMILES)	Type
COc1cc([C@H]2c3cc(OC)c(O[C@H]4O[C@@H](CO)[C@@H](O)[C@@H](O)[C@H]4O)c(OC)c3C[C@@H](CO)[C@@H]2CO)cc(OC)c1O [Decoy823]	Inactive (Decoy)
COc1cc([C@H]2c3cc(OC)c(O[C@H]4O[C@@H](CO)[C@@H](O)[C@@H](O)[C@H]4O)c(OC)c3C[C@H](CO)[C@@H]2CO)cc(OC)c1O [Decoy824]	Inactive (Decoy)
O=C(CS[C@@H]1NN[C@H](NCc2ccco2)S1)N[C@H](Cc1c[nH]c2ccccc12)C(=O)O [Decoy825]	Inactive (Decoy)
Cn1c(CCCC(=O)O)nc2cc(N(CCO)CCOC(=O)CCCc3nc4cc(N(CCO)CCO)ccc4n3C)ccc21 [Decoy826]	Inactive (Decoy)
COc1ccc(N/C(=N/C(=O)c2ccc(OC)c(OC)c2)NCCc2c(C)nn(C)c2C)cc1OC [Decoy827]	Inactive (Decoy)
O[C@H](CNCCOc1ccccc1OCCNC[C@H](O)COc1cccc2[nH]c3ccccc3c12)COc1cccc2[nH]c3ccccc3c12 [Decoy828]	Inactive (Decoy)
CCN(CC)c1ccc2c(-c3ccc(S(=O)(=O)NCCSS(C)(=O)=O)cc3S(=O)(=O)[O-])c3ccc(=[N+](CC)CC)cc-3oc2c1 [Decoy829]	Inactive (Decoy)
C[C@H](CCC(=O)NCCS(=O)(=O)O)[C@H]1CC[C@H]2[C@H]3[C@H](O)C[C@@H]4C[C@H](OS(=O)(=O)O)CC[C@]4(C)[C@H]3C[C@H](O)[C@]12C [Decoy830]	Inactive (Decoy)
CCOc1ccccc1NC(=O)CSC1=C(C#N)[C@H](c2ccco2)C(/C(O)=N/c2ccc(S(N)(=O)=O)cc2)=C(C)N1 [Decoy831]	Inactive (Decoy)
CCOc1ccc(-c2nn(-c3ccccc3)cc2C2C(C(=O)OCCOC)=C(C)NC(C)=C2C(=O)OCCOC)cc1C [Decoy832]	Inactive (Decoy)
COCCOC(=O)C1=C(C)NC(SCC(=O)Nc2ccc([N+](=O)[O-])cc2)=C(C#N)[C@@H]1c1ccco1 [Decoy833]	Inactive (Decoy)
CCc1c(C)nc(-n2nc(-c3ccco3)cc2NC(=O)c2cc(OC)c(OC)cc2[N+](=O)[O-])nc1O [Decoy834]	Inactive (Decoy)
COc1ccc(OC)c(S(=O)(=O)Nc2ccc(S(=O)(=O)Nc3nccc(C)n3)cc2)c1 [Decoy835]	Inactive (Decoy)
CC(C)(O)[C@@H](O)CC[C@@H](CO)[C@H]1CC[C@]2(C)C3=C(C[C@H](O)[C@@]12C)[C@@]1(C)C[C@H](O)[C@H](OC(=O)C[C@](C)(O)CC(=O)NCC(=O)O)C(C)(C)[C@H]1CC3 [Decoy836]	Inactive (Decoy)
COc1cc(S(=O)(=O)N2CCCCC2)ccc1N/C=C1\C(=O)NC(=O)N(c2ccc(C)cc2)C1=O [Decoy837]	Inactive (Decoy)
CCOC(=O)c1c(NC(=O)/C(O)=N/N=C/c2cn(-c3ccccc3)nc2-c2ccc(OC)cc2)sc2c1CCCC2 [Decoy838]	Inactive (Decoy)
CC1(C)[C@]2(C(=O)NCCN(CCNC(=O)[C@]34CC[C@](C)(C(=O)C3)C4(C)C)CCNC(=O)[C@]34CC[C@](C)(C(=O)C3)C4(C)C)CC[C@@]1(C)C(=O)C2 [Decoy839]	Inactive (Decoy)
O=C(O)c1ccccc1Nc1ccc(C(F)(F)F)cc1Nc1ccc(CNCc2c[nH]c(=O)[nH]c2=O)cc1C(=O)O [Decoy840]	Inactive (Decoy)
N[C@@H](CCCC[n+]1cc(CC[C@H](N)C(=O)O)cc(CC[C@H](N)C(=O)O)c1CCC[C@H](N)C(=O)O)C(=O)[O-] [Decoy841]	Inactive (Decoy)

Structure (SMILES)	Type
COc1cc(C(=O)O)ccc1O[C@@H]1O[C@H](COC(=O)c2ccc(O)c(O)c2)[C@@H](O)[C@H](O)[C@H]1O [Decoy842]	Inactive (Decoy)
CCOC(=O)c1sc(NC(=O)CSc2nnc(CNC(=O)c3ccccc3OC)n2C)c(C(=O)OCC)c1C [Decoy843]	Inactive (Decoy)
CCN(CC)Cc1c(C(=O)N/N=C/c2cc(Cl)ccc2OCc2c(F)cccc2Cl)nnn1-c1nonc1N [Decoy844]	Inactive (Decoy)
CCOC(=O)c1ccc(NC(=O)C(=O)NCc2ccc(/C=C3/C(=O)N(c4ccc(C)c(Cl)c4)C(C)=C3C(=O)OC)o2)cc1 [Decoy845]	Inactive (Decoy)
CCOC(=O)c1ccc(NC(=O)C(=O)NCc2ccc(/C=C3\C(=O)N(c4ccc(Cl)c(Cl)c4)C(C)=C3C(=O)OC)o2)cc1 [Decoy846]	Inactive (Decoy)
CC(C)(CO[P@](=O)(O)O[P@](=O)(O)OC[C@H]1O[C@@H](n2cnc3c(N)ncnc32)[C@H](O)[C@@H]1OP(=O)(O)O)[C@@H](O)C(=O)NCCC(=O)NCCS [Decoy847]	Inactive (Decoy)
CCOc1cc([C@@H]2C(C(=O)c3ccc4c(c3)OCCO4)=C(O)C(=O)N2CCCN2CCOCC2)ccc1O [Decoy848]	Inactive (Decoy)
CC(C)(C)NS(=O)(=O)c1ccc(NC(=O)CSc2nnc(N/N=C/c3cccc(O)c3)n2N)cc1 [Decoy849]	Inactive (Decoy)
CCCN[C@H](c1cc(F)ccc1Cl)c1cc(C)ccc1Br [Decoy850]	Inactive (Decoy)
COc1cc(-c2ccc(/N=N/c3ccc4c(S(=O)(=O)O)cc(S(=O)(=O)O)c(N)c4c3O)c(OC)c2)ccc1/N=N\c1c(O)ccc2ccccc12 [Decoy851]	Inactive (Decoy)
C[C@H](OC(=O)c1sccc1NS(C)(=O)=O)C(=O)NCC(=O)Nc1ccc(F)c(F)c1F [Decoy852]	Inactive (Decoy)
CCSc1nnc(NC(=O)CSc2nnc(CNC(=O)c3cccs3)n2-c2ccccc2OC)s1 [Decoy853]	Inactive (Decoy)
CC(=O)SCCNC(=O)CCNC(=O)[C@@H](O)C(C)(C)CO[P@](=O)(O)O[P@](=O)(O)OC[C@H]1O[C@@H](n2cnc3c(N)ncnc32)[C@@H](O)[C@H]1OP(=O)(O)O [Decoy854]	Inactive (Decoy)
CCc1ccc(NC(=O)CSC2=C(C#N)[C@H](c3ccco3)C(C(=O)Nc3ccc(S(N)(=O)=O)cc3)=C(C)N2)cc1 [Decoy855]	Inactive (Decoy)
COc1cc(C(=O)NNC(=S)NC(=O)COc2ccc(Br)cc2C)cc(OC)c1OC [Decoy856]	Inactive (Decoy)
CCNc1nc(NCC)n2c(SCC(=O)NC3=C(C(=O)OCC)[C@H]4CCC[C@@H]4S3)nnc2n1 [Decoy857]	Inactive (Decoy)
CCOc1ccc(S(=O)(=O)Nc2ccc(C(=O)N/N=C(\C)c3ccc(OC)cc3O)cc2)cc1 [Decoy858]	Inactive (Decoy)
COc1cc(-c2ccc(/N=N/c3cc(S(=O)(=O)O)c4ccccc4c3O)c(OC)c2)ccc1/N=N\c1c(S(=O)(=O)O)cc2cc(C(=O)O)c(O)cc2c1O [Decoy859]	Inactive (Decoy)
CC[C@H](C)[C@H](O)C(=O)O[C@H](C(=O)O[C@H](C(=O)OC[C@@H](O)[C@@H](O)[C@@H](O)[C@@H](O)CO)[C@@H](C)CC)[C@@H](C)CC [Decoy860]	Inactive (Decoy)

Structure (SMILES)	Type
CC[C@H](C)[C@H](O)C(=O)O[C@H](C(=O)O[C@H](C(=O)OC[C@H](O)[C@H](O)[C@H](O)[C@H](O)CO)[C@@H](C)CC)[C@@H](C)CC [Decoy861]	Inactive (Decoy)
CC[C@@H](C)[C@H](O)C(=O)O[C@H](C(=O)O[C@H](C(=O)OC[C@@H](O)[C@@H](O)[C@@H](O)[C@@H](O)CO)[C@@H](C)CC)[C@@H](C)CC [Decoy862]	Inactive (Decoy)
CC[C@H](C)[C@H](OC(=O)[C@@H](OC(=O)[C@H](O)[C@@H](C)CC)[C@@H](C)CC)C(=O)OC[C@H](O)[C@H](O)[C@H](O)[C@H](O)CO [Decoy863]	Inactive (Decoy)
CCCCN(C(=O)c1cccc(S(=O)(=O)N2CCN(C)CC2)c1)c1c(N)n(CCCC)c(=O)[nH]c1=O [Decoy864]	Inactive (Decoy)
O=c1ccn([C@@H]2O[C@H](CO[P@](=O)(O)O[P@@](=O)(O)O[C@H]3OC[C@@H](O)[C@H](O)[C@H]3O)[C@@H](O)[C@H]2O)c(=O)[nH]1 [Decoy865]	Inactive (Decoy)
CCOC(=O)C1=C(CN2CCN(CC(=O)Nc3cccc(F)c3)CC2)NC(=O)N[C@@H]1CC [Decoy866]	Inactive (Decoy)
CCN(CC)S(=O)(=O)c1ccc(OC)c(NC(=O)COc2cc(C)ccc2C(N)=O)c1 [Decoy867]	Inactive (Decoy)
C[C@H]1CN(S(=O)(=O)c2ccc(C(=O)Nc3ccc(S(=O)(=O)Nc4nccs4)cc3)cc2)C[C@H](C)O1 [Decoy868]	Inactive (Decoy)
CCOC(=O)c1ccc(NC(=O)CCN2C(=O)/C(=C3\SC(=S)N(CCC(=O)Nc4ccc(C(=O)OCC)cc4)C3=O)SC2=S)cc1 [Decoy869]	Inactive (Decoy)
Cc1cccc(N(C(=O)c2snc(C(N)=O)c2N)[C@H](C(=O)NCCC(C)C)c2ccc(N(C)C)cc2)c1 [Decoy870]	Inactive (Decoy)
COc1cc(NC(=O)CCSc2nnc(N/N=C/c3c(O)ccc4ccccc34)n2N)cc(OC)c1 [Decoy871]	Inactive (Decoy)
COC(=O)c1[nH]c(C)c(C(=O)C2=C(O)C(=O)N(CCN3CCOCC3)[C@@H]2c2cc(OC)c(OC)c(OC)c2)c1C [Decoy872]	Inactive (Decoy)
COC(=O)c1[nH]c(C)c(C(=O)C2=C(O)C(=O)N(CCN3CCOCC3)[C@H]2c2cc(OC)c(OC)c(OC)c2)c1C [Decoy873]	Inactive (Decoy)
CC(C)N(C(=O)c1ccc(C(=O)Nc2cccc(NC(=O)c3ccc(C(=O)N(C(C)C)C(C)C)cc3)n2)cc1)C(C)C [Decoy874]	Inactive (Decoy)
CC(=C\C(=O)O)/C=C(\C)C[C@@H](C)CCCC[C@@H](O)[C@@H](CO)C(=O)OC[C@H]1O[C@@H](O)[C@@H](O)[C@@H](O)[C@H]1O [Decoy875]	Inactive (Decoy)
CC(=C\C(=O)O)/C=C(\C)C[C@@H](C)CCCC[C@H](O)[C@@H](CO)C(=O)OC[C@H]1O[C@@H](O)[C@@H](O)[C@@H](O)[C@H]1O [Decoy876]	Inactive (Decoy)
CCN(CC)c1ccc(/C=N/Nc2nnc(SCC(=O)Nc3ccc(OC)cc3OC)n2N)c(O)c1 [Decoy877]	Inactive (Decoy)
O[C@@H](CNCCOc1ccccc1OCCNC[C@H](O)COc1cccc2[nH]c3ccccc3c12)COc1cccc2[nH]c3ccccc3c12 [Decoy878]	Inactive (Decoy)
N[C@@H](CCC(=O)N[C@@H](CSCCN(CCSC[C@H](NC(=O)CC[C@H](N)C(=O)O)C(=O)NCC(=O)O)[P@](N)(=O)O)C(=O)NCC(=O)O)C(=O)O [Decoy879]	Inactive (Decoy)
